In patent publication US7375103B2, “Optically active pyridine derivative and a medicament containing the same” (Bayer HealthCare AG, priority 2002, dated 2008):

What was measured:
[1] = system: LPS-induced TNF-α production; assay: Rat LPS-induced TNF-α production; format: in vivo, Wistar female rats; settings: in Rat
Protocol: [Rat LPS-Induced TNF-α Production]
Seven weeks old Wistar female rats were used. One mg of LPS (lypopolysaccharide) dissolved in phosphate buffer saline (pH 7.4) was administered intraperitoneally (i.p.) to rats. Compounds were given orally 60 minutes prior to the LPS injection. Under anesthesia with pentobarbital (80 mg/kg, i.p.), blood was collected from the posterior venous cavity of the rats 120 minutes post-LPS injection and added into 96-well plate containing 2% EDTA solution. The plasma was separated by centrifugation at 1800 rpm for 10 minutes at 4° C. and then diluted with four times volumes of phosphate buffer saline (H 7.4) containing 1% bovine serum albumin. TNF-α concentration in the sample was determined using an ELISA kit (Endogen, Boston, Mass.).
The mean TNF-α level in 7-8 rats from each group was determined and the percent reduction in TNF-α levels was calculated.

[2] = cellular assays (not further specified); format: cell-based
Protocol: [The Measurement of RANTES Production in Response to TNF-α from A549 cells]
(1) Preparation of A549 Cells
• The A549 human lung epithelium cell line (ATCC […]) was maintained in Dulbecco's modified Eagle's medium (D-MEM, Nikken Biomedical Institute) supplemented with 10% FCS (Gibco), 100 U/ml penicillin, 100 μg/ml streptomycin, and 2 mM glutamine (culture medium). Forty thousand (4×10^4) cells (80 μl/well) were seeded in each well of 96 well flat-bottom tissue culture plate (Falcon #3072). The plate was allowed to stand for 2 hrs, thus the cells were adhered to the bottom of each well. To the each well was added 10 μl vehicle (1% DMSO), serial dilutions of test compounds in 1% DMSO, or 5 nM Dexamethasone in 1% DMSO as a reference. The mixture (90 μl/well) was incubated for 1 hr at 37° C. After 1 hr, 1 μg/ml TNF-α (10 μl) in culture medium was added to the mixture to obtain 100 μl of reaction mixture. The reaction mixture was cultured for 24 hrs to stimulate the cells with 100 ng/ml TNF-α. […] (2) Measurement of RANTES Production • Then the concentration of RANTES released from the cells in the supernatants of each well was determined using a quantitative sandwich enzyme immunoassay technique. […] Fluorescent intensity was measured using a DELFIA fluorimeter (Wallac). Excitation was performed at 340 nm and emission was measured at 615 nm. […]

Compound: O=C1Nc2nc(-c3c(O)cccc3OCC3CC3)cc([C@@H]3CCCNC3)c2CO1 [the compound of the present invention, (−)-7-[2-(cyclopropylmethoxy)-6-hydroxy-phenyl]-5-[(3S)-3-piperidinyl]-1,4-hydro-2H-pyrido [2,3-d][1,3]oxazin-2-one]
- mutagenicity according to the Ames-Test Screening (Ames-Test Screening): non-mutagenic
- anti-inflammatory activity compared with corresponding racemic modification [1]: twice as strong as corresponding racemic modification
- cellular activity compared with corresponding racemic modification [2]: twice as strong as corresponding racemic modification
